{"source": "PubChem BioAssay AID463206", "about": "(Broad Institute, 2010)", "note": "The source made the active and inactive calls.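 How the source made its calls: active means caspase luminescence falls with dose and the half-maximal concentration AC50 from the fitted curve is at or below a set limit; inconclusive means flat fit at 30 to 70% signal loss, or invalid fit; inactive means AC50 above the limit, or signal rises instead.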", "data": [{"tested_on": "INS-1E cytokine-induced caspase-3/7, Caspase-Glo luminescence, 48 h", "experiment": "inhibitors of cytokine-induced caspase-3/7 activity, dose response, orthogonal assay for beta-cell apoptosis protection project, INS-1E rat cells, luminescence (AID 463206)", "values": [{"smiles": "Cc1ccc(S(=O)(=O)Nc2ccccc2N(C)S(=O)(=O)c2ccc(C)cc2)cc1", "AC50": "> 26 µM (inactive)"}, {"smiles": "CN(C)c1ccc(NC(=S)NC23CC4CC(CC(C4)C2)C3)cc1", "AC50": "> 26 µM (inactive)"}, {"smiles": "COc1cc([N+](=O)[O-])cc(/C=N/NC(=O)c2cc(-c3ccccc3)nc3ccccc23)c1O", "AC50": "> 26 µM (inactive)"}, {"smiles": "Cc1cc(N2CCN(C)CC2)ccc1NC(=O)c1c2c(nc3ccccc13)CCN(Cc1ccccc1)C2", "AC50": "14.7 µM"}, {"smiles": "CC1=NN(c2nc(-c3ccc(C)cc3)cs2)C(=O)C1N=Nc1ccc(C(N)=O)cc1", "note": "(configuration not stated)", "AC50": "> 26 µM (inactive)"}, {"smiles": "O=C(NNC(=O)C12CC3CC(CC(C3)C1)C2)c1ccccn1", "AC50": "> 26 µM (inactive)"}, {"smiles": "O=C(Nc1cccc(S(=O)(=O)Nc2ccc(Cl)cc2)c1)c1ccc(Cl)nc1", "AC50": "> 26 µM (inactive)"}, {"smiles": "C=CCc1cccc(/C=N/NC(=O)c2ccc3nc[nH]c3c2)c1O", "AC50": "> 26 µM (inactive)"}, {"smiles": "Cc1nc(C)c(-c2csc(NCCc3ccccc3)n2)s1", "AC50": "> 26 µM (inactive)"}, {"smiles": "O=S(=O)(NCC1CCCO1)c1ccc(-c2ccc(S(=O)(=O)NCC3CCCO3)cc2)cc1", "note": "(configuration not stated)", "AC50": "> 26 µM (inactive)"}, {"smiles": "CC(C)NC(=S)NC(c1ccccc1)(c1ccccc1)c1ccccc1", "AC50": "> 26 µM (inactive)"}, {"smiles": "O=S(=O)(c1ccc(Cl)cc1)N1CCN(c2ncnc3sccc23)CC1", "AC50": "> 26 µM (inactive)"}, {"smiles": "C=C(C=O)C[C@@H]1C[C@H](O)C2OC3C[C@]4(C)OC5/C=C\\CC6OC7C(CC=CCC6OC5CCCC4OC3CC2O1)OC1CC2OC3CC(=O)OC3C[C@@H](C)C[C@@]2(C)OC1C[C@@H]7C", "note": "(some centres not stated)", "AC50": "> 26 µM (inactive)"}, {"smiles": "CCN(CC)S(=O)(=O)c1cccc(NC(=O)Nc2cccc(C(F)(F)F)c2)c1", "AC50": "> 26 µM (inactive)"}, {"smiles": "CCS(=O)(=O)c1ccc(OC)c(N=Nc2ccc(O)c3ncccc23)c1", "AC50": "> 26 µM (inactive)"}, {"smiles": "CCCC(=O)NC(c1ccccc1Cl)c1ccc2cccnc2c1O", "note": "(configuration not stated)", "AC50": "> 26 µM (inactive)"}, {"smiles": "O=C(NCc1cccnc1)C(=O)Nc1nc(C23CC4CC(CC(C4)C2)C3)cs1", "AC50": "> 26 µM (inactive)"}, {"smiles": "CCCCCCc1cc2cc(-c3nnc(-c4ccccc4O)o3)c(=O)oc2cc1O", "AC50": "> 26 µM (inactive)"}, {"smiles": "COc1cccc(/C=N/NC(=O)c2cc3cc([N+](=O)[O-])ccc3s2)c1O", "AC50": "> 26 µM (inactive)"}, {"smiles": "CC(C)(C)OC(=O)NCCCCCc1cn([C@@H](CO)C(=O)NCCCCCCCCCCC(=O)N2CCN(C(=O)OC(C)(C)C)CC2)nn1", "AC50": "> 26 µM (inactive)"}, {"smiles": "COc1ccc2[nH]c(C(=O)N/N=C/c3ccc(O)cc3O)cc2c1", "AC50": "> 26 µM (inactive)"}, {"smiles": "CCCC(=O)N(CCN(C(=O)CCC)c1ccccc1)c1ccccc1", "AC50": "> 26 µM (inactive)"}, {"smiles": "O=[N+]([O-])c1ccc(/C=N/Nc2ccnc3cc(Cl)ccc23)o1", "AC50": "19.8 µM"}, {"smiles": "Oc1cc(-c2ccc(N3CCCCC3)nc2)cc2cccnc12", "AC50": "> 26 µM (inactive)"}, {"smiles": "CCOc1ccc(-c2c[n+]3c(n2-c2ccccc2)CCCCC3)cc1", "AC50": "> 26 µM (inactive)"}, {"smiles": "CCC[C@@H](CN1CCC[C@H]1CN1C(N)=NC[C@@H]1Cc1ccccc1)N1C[C@@H]([C@H](C)CC)N(CCCC2CCCC2)C1=N", "AC50": "> 26 µM (inactive)"}, {"smiles": "CNC(=S)N(Cc1cccs1)Cc1cc2cc(OC)c(OC)cc2[nH]c1=O", "AC50": "> 26 µM (inactive)"}, {"smiles": "c1ccc2c(CN3CCCCCCC3)c[nH]c2c1", "AC50": "> 26 µM (inactive)"}, {"smiles": "CN(CC1CCCO1)S(=O)(=O)c1ccc(C(=O)Nc2nc(-c3ccccn3)cs2)cc1", "note": "(configuration not stated)", "AC50": "> 26 µM (inactive)"}, {"smiles": "CCN(CC)CCOc1ccc2c(c1)C(=NNC(=O)c1ccccn1)c1cc(OCCN(CC)CC)ccc1-2", "AC50": "> 26 µM (inactive)"}, {"smiles": "Nc1ccc(Nc2ccccc2)cc1", "AC50": "17.7 µM"}, {"smiles": "O=C(OCn1ncc(Br)c(Br)c1=O)c1ccccc1Cl", "AC50": "> 26 µM (inactive)"}, {"smiles": "c1ccc(CNc2c(-c3cccc(SC4CCCCC4)c3)nc3ccccn23)cc1", "AC50": "> 26 µM (inactive)"}, {"smiles": "Cc1ccc(O)c(/C=N/NC(=O)c2[nH]ncc2Br)c1", "AC50": "> 26 µM (inactive)"}, {"smiles": "COc1cc2sc(-c3ccccc3OC)c(-c3ccc(OCCN4CCCCC4)cc3)c2cc1OC", "AC50": "16 µM"}, {"smiles": "Nc1c(C(=O)Nc2ccc3c(c2)OCCO3)nnn1Cc1ccccc1Cl", "AC50": "> 26 µM (inactive)"}, {"smiles": "COc1c(CC=C(C)C)cc(C2CC(=O)c3c(O)cc(O)cc3O2)cc1CC=C(C)C", "note": "(configuration not stated)", "AC50": "> 26 µM (inactive)"}, {"smiles": "C/C(=N\\NC(=O)c1cc(-c2cccnc2)nc2ccccc12)c1ccccc1O", "AC50": "> 26 µM (inactive)"}, {"smiles": "Cc1ccc(N(CC(=O)Nc2cc(C)cc(C)c2)S(=O)(=O)c2c(C)noc2C)cc1", "AC50": "> 26 µM (inactive)"}, {"smiles": "CC(C)c1nc(-c2ccccc2)c(-c2ccccc2)[nH]1", "AC50": "> 26 µM (inactive)"}, {"smiles": "Cc1ccc(NC(=O)COc2ccc(N(C)C(=O)C(C)(C)C)cc2)cc1S(=O)(=O)N1CCCCC1", "AC50": "> 26 µM (inactive)"}, {"smiles": "CCS(=O)(=O)c1ncc(Cl)c(C(=O)Nc2ccc(S(=O)(=O)N3CCCC(C)C3)cc2)n1", "note": "(configuration not stated)", "AC50": "> 26 µM (inactive)"}, {"smiles": "Brc1ccc(CN2CCN(Cc3c[nH]c4ccccc34)CC2)cc1", "AC50": "> 26 µM (inactive)"}, {"smiles": "CCN(Cc1ccccc1)C(c1ccc(C(F)(F)F)cc1)c1nnnn1C(C)(C)C", "note": "(configuration not stated)", "AC50": "> 26 µM (inactive)"}, {"smiles": "C[n+]1c2n(c3ccccc31)N=C(c1ccc(Cl)cc1)CS2", "AC50": "> 26 µM (inactive)"}, {"smiles": "CN(Cc1c(F)cccc1Cl)C(=O)c1cc2ccccc2o1", "AC50": "> 26 µM (inactive)"}, {"smiles": "Cc1cc(C)nc(OC(=O)c2ccc(Cl)cc2Cl)n1", "AC50": "> 26 µM (inactive)"}, {"smiles": "COc1ccc(CNC(=O)c2c(C)oc3c2C(=O)c2ccccc2C3=O)cc1", "AC50": "> 26 µM (inactive)"}, {"smiles": "C=CCNC(=S)N/N=C(\\C)c1ccccn1", "AC50": "> 26 µM (inactive)"}, {"smiles": "Cc1onc(-c2ccccc2)c1C(=O)NC(=S)NNC(=O)c1ccccc1O", "AC50": "> 26 µM (inactive)"}, {"smiles": "CCn1nc(C)c(CNC(=O)c2ccc(OC3CCN(Cc4ccccn4)CC3)cc2)c1C", "AC50": "> 26 µM (inactive)"}, {"smiles": "O=C1c2ccccc2C2=Nc3ccccc3SC(c3ccc(Cl)cc3)C12", "note": "(configuration not stated)", "AC50": "> 26 µM (inactive)"}, {"smiles": "CCN(CC)c1ccc(CNc2nc3ccccc3n2CCN2CCCCC2)cc1", "AC50": "> 26 µM (inactive)"}, {"smiles": "CCn1cc(C(=O)O)c(=O)c2cc(F)c(N/N=C/c3ccccc3[N+](=O)[O-])cc21", "AC50": "> 12 µM (inactive)"}, {"smiles": "CCCCCCn1c2c(c(=N)c3c1CCC3)CCC2", "AC50": "> 26 µM (inactive)"}, {"smiles": "Cc1cc(C)nc(SCc2ccc(C(=O)N/N=C/c3cccc(O)c3O)cc2)n1", "AC50": "> 26 µM (inactive)"}, {"smiles": "O=[N+]([O-])c1ccc(Sc2cccc3cccnc23)c([N+](=O)[O-])c1", "AC50": "> 26 µM (inactive)"}, {"smiles": "Cc1cccc(/C=N/NC(=O)c2ccc3c(c2)OCCO3)c1O", "AC50": "> 26 µM (inactive)"}, {"smiles": "CCc1ccc2c(c1)C1(C(=O)N2)N2CCCC2C(C(=O)c2ccc3ccccc3c2)C12C(=O)Nc1ccccc12", "note": "(configuration not stated)", "AC50": "> 26 µM (inactive)"}, {"smiles": "N#CC(C#N)=NNc1ccc(-n2ccc(C(F)(F)F)n2)cc1", "AC50": "> 26 µM (inactive)"}, {"smiles": "O=C(Nc1ccc(N2CCN(Cc3ccccc3Cl)CC2)cc1)c1cccnc1", "AC50": "> 26 µM (inactive)"}, {"smiles": "COc1ccc(-c2c[n+]3c(n2-c2ccccc2)CCCCC3)cc1", "AC50": "> 26 µM (inactive)"}, {"smiles": "CN1/C(=C\\P(=O)(N(C)C)N(C)C)C(C)(C)c2ccccc21", "AC50": "> 26 µM (inactive)"}, {"smiles": "CC(=O)c1c(C)oc2ccc(N(C(C)=O)S(=O)(=O)c3cccc4cccnc34)cc12", "AC50": "> 26 µM (inactive)"}, {"smiles": "Cc1cccc(CNc2ccc(S(=O)(=O)N3CCCCC3)cc2)c1", "AC50": "> 26 µM (inactive)"}, {"smiles": "COc1cccc(C(NC(C)=O)c2ccc3cccnc3c2O)c1", "note": "(configuration not stated)", "AC50": "> 26 µM (inactive)"}, {"smiles": "COCCCNC(=S)N/N=C/c1cccc(OC)c1O", "AC50": "> 26 µM (inactive)"}]}]}
